Experimental data reported in article PMC4006130 (Pflugers Archiv, 2013).

Biological target: NHE1 (Rattus norvegicus, UniProt P26431)
Experiment: BCECF intracellular pH recovery after ammonium prepulse
Format: cell-based

NHE1, sequence (P26431 whole entry): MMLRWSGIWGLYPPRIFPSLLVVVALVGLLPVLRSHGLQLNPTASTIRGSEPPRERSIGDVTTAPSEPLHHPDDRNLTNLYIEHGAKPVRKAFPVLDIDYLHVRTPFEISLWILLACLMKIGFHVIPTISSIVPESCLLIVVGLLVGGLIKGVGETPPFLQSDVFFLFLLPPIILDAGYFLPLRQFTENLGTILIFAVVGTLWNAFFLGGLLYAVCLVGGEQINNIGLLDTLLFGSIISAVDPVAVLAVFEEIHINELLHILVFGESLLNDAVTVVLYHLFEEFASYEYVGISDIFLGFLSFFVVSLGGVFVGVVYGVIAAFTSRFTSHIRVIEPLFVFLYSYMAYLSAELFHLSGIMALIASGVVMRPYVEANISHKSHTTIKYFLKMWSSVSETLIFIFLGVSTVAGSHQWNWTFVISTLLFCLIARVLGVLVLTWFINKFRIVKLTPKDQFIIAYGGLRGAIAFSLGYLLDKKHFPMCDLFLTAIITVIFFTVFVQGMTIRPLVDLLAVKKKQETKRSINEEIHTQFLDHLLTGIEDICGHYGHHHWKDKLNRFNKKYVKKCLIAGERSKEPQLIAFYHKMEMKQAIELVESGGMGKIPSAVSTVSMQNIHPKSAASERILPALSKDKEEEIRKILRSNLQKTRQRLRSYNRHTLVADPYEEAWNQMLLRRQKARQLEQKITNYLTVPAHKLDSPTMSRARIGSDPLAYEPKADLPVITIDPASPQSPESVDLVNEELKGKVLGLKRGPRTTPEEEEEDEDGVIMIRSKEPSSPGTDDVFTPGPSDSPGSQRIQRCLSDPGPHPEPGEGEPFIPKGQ

## CC(C)c1ccc(C(=O)NC(=N)N)cc1S(C)(=O)=O [cariporide]
  IC50: 1.1 µM
